From ChEMBL document CHEMBL1131057, “Peptidomimetic growth hormone secretagogues. Design considerations and therapeutic potential” (J Med Chem, 1998)
Where a SMILES comes first, the peptide text is derived from it. [ ]: non-standard residue; d: D form. d2Nal = N[C@H](Cc1ccc2ccccc2c1)C(=O)O; 3Amb = NCc1cccc(C(=O)O)c1

How the values were obtained:
[1] = test system: Rattus norvegicus; experiment: Compound was tested for effective dose rquired for GH release following iv administration to 4-week old anesthetized Sprague-Dawley rats; type: functional
[2] = species on record: Rattus norvegicus; experiment: compound was evaluated for GH release in the rat pituitary cell culture assay; type: functional; settings: Pituitary gland cell
[3] = species on record: Rattus norvegicus; experiment: compound was evaluated for GH release in the rat; 10-30 ng/mL; type: functional, organism-based
[4] = Oral bioavailability measured in dogs; type: ADME, organism-based, Canis lupus familiaris; settings: dog, in vivo
[5] = species on record: Rattus norvegicus; experiment: Compound was evaluated for binding affinity, which binds with high affinity to membranes isolated from rat hypothalamus; type: functional
[6] = test system: Canis familiaris; experiment: Compound is evaluated for elevated GH in beagles with intravenous dose; type: functional; settings: Canis lupus familiaris
[7] = Half-life period measured in dogs; type: ADME, organism-based, Canis lupus familiaris; settings: dog, in vivo
[8] = species on record: Rattus norvegicus; experiment: In Vitro evaluation for growth hormone release from the pituitary incubates; type: functional
[9] = species on record: Canis familiaris; experiment: Compound is evaluated for elevated GH in beagles with peroral dose; type: functional; settings: Canis lupus familiaris, po
[10] = species on record: Sus scrofa; experiment: Limited capacity to porcine pituitary membranes was evaluated; type: functional
[11] = species on record: Rattus norvegicus; experiment: The concentration of binding sites was evaluated; type: functional
[12] = species on record: Rattus norvegicus; experiment: compound was evaluated for GH release in the rat; type: functional, organism-based
[13] = species on record: Rattus norvegicus; experiment: compound was evaluated for GH release in the rat pituitary cell; type: functional; settings: Pituitary gland cell
[14] = species on record: Rattus norvegicus; experiment: In vitro efficacy was evaluated for growth hormone release
[15] = target: T1, Oxytocin receptor (Homo sapiens, UniProt P30559); experiment: Antagonistic activity against Oxytocin receptor; type: functional
T1 sequence (P30559 whole entry): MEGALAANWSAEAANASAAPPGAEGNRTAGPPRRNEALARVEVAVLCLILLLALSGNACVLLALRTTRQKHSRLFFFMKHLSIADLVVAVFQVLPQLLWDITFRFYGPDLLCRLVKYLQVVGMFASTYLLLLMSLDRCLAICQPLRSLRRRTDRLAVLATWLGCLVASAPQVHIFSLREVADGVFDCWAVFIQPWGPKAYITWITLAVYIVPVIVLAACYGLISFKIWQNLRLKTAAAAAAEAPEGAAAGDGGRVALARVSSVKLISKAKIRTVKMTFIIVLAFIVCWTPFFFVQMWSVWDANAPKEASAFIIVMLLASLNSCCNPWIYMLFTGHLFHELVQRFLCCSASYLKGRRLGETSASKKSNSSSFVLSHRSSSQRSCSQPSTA

[16] = species on record: Homo sapiens; experiment: compound was evaluated for GH release; type: functional, organism-based
[17] = species on record: Rattus norvegicus; experiment: compound was evaluated for GH release in rat; type: functional, organism-based
[18] = species on record: Rattus norvegicus; experiment: Compound was tested for GH releasing from cultured rat pituitary cells (maximal increase in 15 min); type: functional, Pituitary gland cell
[19] = In vitro efficacy was evaluated for growth hormone release
[20] = Compound was evaluated percentage of Oral bioavailability in dogs; type: ADME, organism-based, Canis lupus familiaris; settings: dog, in vivo
[21] = Compound was evaluated for the systemic clearance rate in rats; type: ADME, organism-based; settings: rat, in vivo; read-out: Clearance rate
[22] = Compound was evaluated for the half-life in rats; type: ADME, organism-based; settings: rat, in vivo
[23] = species on record: Rattus norvegicus; experiment: Compound measured for stimulated GH release; type: functional, organism-based
[24] = target: Growth hormone secretagogue receptor type 1 (Homo sapiens, UniProt Q92847); experiment: Inhibitory concentration (biotinylated probe) is evaluated for [35S]- MK-0677 binding
[25] = Half-life period measured in dog; type: ADME, organism-based, Canis lupus familiaris; settings: in vivo

Sequence of Growth hormone secretagogue receptor type 1 (Q92847 whole entry): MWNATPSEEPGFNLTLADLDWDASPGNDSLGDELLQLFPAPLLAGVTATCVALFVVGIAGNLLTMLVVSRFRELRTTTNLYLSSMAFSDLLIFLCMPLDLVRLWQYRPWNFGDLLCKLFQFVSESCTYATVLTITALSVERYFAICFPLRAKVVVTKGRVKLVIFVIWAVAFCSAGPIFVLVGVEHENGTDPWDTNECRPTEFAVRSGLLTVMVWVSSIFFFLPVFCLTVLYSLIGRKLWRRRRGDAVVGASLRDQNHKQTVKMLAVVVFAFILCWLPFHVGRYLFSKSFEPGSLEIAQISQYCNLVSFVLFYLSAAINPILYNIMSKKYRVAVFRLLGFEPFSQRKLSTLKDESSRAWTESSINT

## CN(C)S(=O)(=O)c1ccc2c(c1)CN(C(=O)[C@@H](Cc1c[nH]c3ccccc13)NC(=O)C(C)(C)N)CC2
[1]
  ED50: 3 mg/kg
[2]
  EC50: 30 nM

## C[C@H](NC(=O)[C@H](Cc1c[nH]c2ccccc12)NC(=O)[C@@H](N)Cc1ccc(O)cc1)C(=O)N[C@@H](Cc1c[nH]c2ccccc12)C(=O)N[C@H](Cc1ccccc1)C(N)=O
[3]
  Concentration: 30 ng/mL

## CC(C)(N)C(=O)N[C@H](COCc1ccccc1)C(=O)N1CCC2(CC1)CN(S(C)(=O)=O)c1ccccc12 [IBUTAMOREN]
[4]
  bioavailability: > 60%
[5]
  Kd: 0.17 nM
[6]
  MED: 0.025 mg/kg
[7]
  half-life: 4.7 h
[8]
  EC50: 1.3 nM
[9]
  MED: 0.125 mg/kg
[10]
  Bmax (fM (mg of protein)-1): 8
[11]
  Bmax: 8 fmol/mg

## NCCCC[C@H](NC(=O)[C@H](Cc1ccccc1)NC(=O)[C@@H](Cc1ccc2ccccc2c1)NC(=O)[C@@H](Cc1ccc2ccccc2c1)NC(=O)C1CCNCC1)C(N)=O
[12]
  EC50: 0.18 nM

## CSCC[C@@H](NC(=O)[C@H](Cc1ccccc1)NC(=O)CNC(=O)[C@H](Cc1c[nH]c2ccccc12)NC(=O)[C@@H](N)Cc1ccc(O)cc1)C(N)=O
[13]
  Concentration: 10 µg/mL

## CC1(C)C2CCC1(CS(=O)(=O)N1CCC3(CCc4ccccc43)CC1)C(NC(=O)C1CCCNC1)C2 [L-368112]
[14]
  EC50: 300 nM
[15]
  IC50: 68 nM

## C[C@@H]1NC(=O)[C@H](Cc2ccc3ccccc3c2)NC(=O)[C@@H](N)CCCCNC(=O)CC[C@H](C(=O)N[C@@H](CCCCN)C(N)=O)NC(=O)[C@@H](Cc2ccccc2)NC(=O)[C@@H](Cc2c[nH]c3ccccc23)NC1=O
[16]
  EC50: 0.43 nM

## NCCCC[C@H](NC(=O)[C@@H](Cc1ccccc1)NC(=O)[C@@H](Cc1ccc2ccccc2c1)NC(=O)c1cccc(CN)c1)C(N)=O (H-[3Amb][d2Nal][dF]K-NH2)
[2]
  EC50: 7 nM

## C[C@H](N)C(=O)N[C@@H](Cc1c[nH]cn1)C(=O)N[C@H](Cc1ccc2ccccc2c1)C(=O)N[C@@H](C)C(=O)N[C@@H](Cc1c[nH]c2ccccc12)C(=O)N[C@H](Cc1ccccc1)C(=O)N[C@@H](CCCCN)C(N)=O (H-AH[d2Nal]AW[dF]K-NH2)
[17]
  EC50: 6 nM

## CC(C)(N)CC(=O)N[C@@H]1CCc2ccccc2N(Cc2ccc(-c3ccccc3-c3nn[nH]n3)cc2)C1=O
[18]
  Max: 300%
[19]
  EC50: 60 nM
[20]
  bioavailability: < 5%

## C[C@@H](O)CN1CCC[C@@H](C(=O)NC2CC3CCC2(CS(=O)(=O)N2CCC4(CCc5ccccc54)CC2)C3(C)C)C1 (some centres undefined)
[14]
  EC50: 90 nM
[15]
  IC50: 130 nM

## CCOC(=O)[C@]1(Cc2ccccc2)CCCN(C(=O)[C@@H](Cc2c[nH]c3ccccc23)NC(=O)C(C)(C)N)C1
[2]
  EC50: 1.6 nM

## C[C@H](NC(=O)[C@@H](Cc1ccc2ccccc2c1)NC(=O)[C@@H](C)N)C(=O)N[C@@H](Cc1c[nH]c2ccccc12)C(=O)N[C@H](Cc1ccccc1)C(=O)N[C@@H](CCCCN)C(N)=O [PRALMORELIN] (H-[dA][d2Nal]AW[dF]K-NH2)
[21]
  clearance: 23 mL/min/kg
[12]
  EC50: 3 nM
[22]
  half-life: 9 min

## C[C@@H]1CNC(C)(C)CC(=O)N[C@@H]2CCc3ccccc3N(Cc3ccc(cc3)-c3ccccc3C(=O)NCCCC(=O)O1)C2=O
[2]
  EC50: 21 nM

## C[C@@H](O)CNC(C)(C)CC(=O)N[C@@H]1CCc2ccccc2N(Cc2ccc(-c3ccccc3-c3nn[nH]n3)cc2)C1=O [L-692585]
[14]
  EC50: 3 nM

## CNC(=O)Nc1ccccc1-c1ccc(CN2C(=O)[C@H](NC(=O)CC(C)(C)N)CCc3ccccc32)cc1
[2]
  EC50: 50 nM

## CC(C)(N)C(=O)N[C@H](COCc1ccccc1)C(=O)N1CCC2(CC1)CN(S(=O)(=O)CC(=O)NCCCCCCNC(=O)CCCC[C@@H]1SCC3NC(=O)NC31)c1ccccc12 (some centres undefined)
[23]
  EC50: 2.5 nM
[24]
  IC50: 0.2 nM

## CCOC(=O)[C@H]1CC2(CCN(C(=O)[C@@H](CCCc3ccccc3)NC(=O)C(C)(C)N)CC2)c2ccccc21
[25]
  half-life: 1.7 h
[2]
  EC50: 1.9 nM
